# Data taken from patent US20240381872A1, “SUBSTITUTED 2,3-DIHYDRO[1,3]THIAZOLO[4,5-B]PYRIDINES, SALTS THEREOF AND THEIR USE AS HERBICIDALLY ACTIVE SUBSTANCES” (BAYER AKTIENGESELLSCHAFT, priority 2021, published 2024).
# Key:
# Type in all cases: in vivo
# Lolium rigidum (LOLRI) = assay: Herbicidal pre-emergence action, section A (Table A5); conditions: visual grading after ca. 3 weeks vs untreated controls; for pest or weed control at 1280 g/ha: Lolium rigidum, pre-emergence, 504 h, read-out: pre-emergence activity against LOLRI in %
# Summary of the method: (§1)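 Read-out is visual herbicidal effect in percent (100% = plants died, 0% = as control), graded ca. 3 weeks after treatment. Test compounds as WP or EC were applied to covering soil over sown seeds with 0.5% additive, 600 l water per hectare; greenhouse growth.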
# [1] = test system: Matricaria inodora (MATIN); assay: Herbicidal pre-emergence action, section A (Table A6); conditions: visual grading after ca. 3 weeks vs untreated controls
# Summary of the method: as §1
# Poa annua (POAAN) = assay: Herbicidal pre-emergence action, section A (Table A7); conditions: visual grading after ca. 3 weeks vs untreated controls; for pest or weed control at 320 g/ha: Poa annua, pre-emergence, 504 h, read-out: pre-emergence activity against POAAN in %
# Summary of the method: as §1
# Setaria viridis (SETVI) [2] = assay: Herbicidal pre-emergence action, section A (Table A8)
# Summary of the method: as §1
# [3] = test system: Amaranthus retroflexus (AMARE); assay: Herbicidal pre-emergence action, section A (Table A11); conditions: for pest or weed control at 320 g/ha: Amaranthus retroflexus, 504 h, read-out: pre-emergence activity against AMARE in %
# Summary of the method: as §1
# [4] = test system: Abutilon theophrasti (ABUTH); assay: Herbicidal post-emergence action, section B (Table B1); conditions: rated visually after about 3 weeks; for pest or weed control at 1280 g/ha: Abutilon theophrasti, 504 h, read-out: post-emergence activity against ABUTH in %
# Summary of the method: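 Scores are visual % activity relative to untreated plants (0% = like control, 100% = dead), taken about 3 weeks after spraying. Compounds, as WP or EC in water with 0.5% additive at 600 L/ha, went onto one-leaf-stage weeds grown from seed in sandy loam under greenhouse conditions.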
# [5] = test system: Abutilon theophrasti (ABUTH); assay: Herbicidal pre-emergence action, section C (Table C1); conditions: visual grading after ca. 3 weeks vs untreated controls
# Text: Seeds of mono- and dicotyledonous weed plants and crop plants were sown, in plastic or organic planting pots, in sandy loam and covered with soil. The compounds according to the invention, formulated in the form of wettable powders (WP) or as emulsifiable concentrates (EC), were applied to the surface of the covering soil as aqueous suspension or emulsion, with the addition of 0.5% of an additive, at an application rate of 600 l of water/ha (converted). Following treatment, the pots were placed in a greenhouse and kept under optimum growth conditions for the test plants. The visual grading of the damage to the test plants was carried out after ca. 3 weeks in comparison to untreated controls (herbicidal effect in percent (%): 100% effect=plants have died off, 0% effect=as control plants).
# [6] = test system: Alopecurus myosuroides (ALOMY); assay: Herbicidal pre-emergence action, section C (Table C2); conditions: visual grading after ca. 3 weeks vs untreated controls
# Summary of the method: (§2)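 Pre-emergence greenhouse test: visual percent damage scored about 3 weeks after treatment, relative to untreated pots (100% = dead, 0% = no effect). Formulated compounds (WP or EC, plus 0.5% additive) were applied in 600 l water/ha to the covering soil over seeds sown in sandy loam.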
# Glycine max (GLXMA) = assay: Post-emergence effects on crop plants, section F (Table F4); conditions: application rate 80 g/ha; for post-emergence activity against GLXMA in %: crop plant damage
# Summary of the method: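 Percent damage was rated by eye roughly 3 weeks after treatment against untreated plants, where 0% = as control and 100% = died off. Spraying used WP or EC formulations plus 0.5% additive at 600 l water/ha, with rates of 320 g/ha or less. Plants were at the single-leaf stage, sown 2-3 weeks earlier in sandy loam under greenhouse conditions.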
# Setaria viridis (SETVI) [7] = assay: Herbicidal pre-emergence action, section C (Table C8); conditions: visual grading after ca. 3 weeks
# Summary of the method: as §2
# [8] = test system: Triticum aestivum (TRZAS); assay: Pre-emergence effects on crop plants, section D (Table D2); conditions: application rate 80 g/ha; visual grading after ca. 3 weeks
# Summary of the method: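 Read-out: visual percent injury versus untreated controls at ca. 3 weeks (0% as control, 100% dead). Treatment: aqueous WP/EC suspension or emulsion with 0.5% additive, 600 l/ha, on soil covering seeds in sandy loam, at 320 g/ha or below, under optimum greenhouse conditions.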
Compound,pre-emergence activity against LOLRI in % (Lolium rigidum (LOLRI); application rate 320 g/ha) [%],pre-emergence activity against MATIN in % ([1]; application rate 320 g/ha) [%],pre-emergence activity against POAAN in % (Poa annua (POAAN); application rate 320 g/ha) [%],post-emergence activity against ABUTH in % ([4]; application rate 320 g/ha) [%],pre-emergence activity against ABUTH in % ([5]; application rate 320 g/ha) [%],pre-emergence activity against ALOMY in % ([6]; application rate 80 g/ha) [%],post-emergence activity against GLXMA in % (Glycine max (GLXMA)) [%],pre-emergence activity against MATIN in % ([1]; application rate 1280 g/ha) [%],pre-emergence activity against SETVI in % (Setaria viridis (SETVI) [2]; application rate 320 g/ha) [%],pre-emergence activity against AMARE in % ([3]; application rate 320 g/ha) [%],pre-emergence activity against SETVI in % (Setaria viridis (SETVI) [7]; application rate 80 g/ha) [%],pre-emergence activity against ALOMY in % ([6]; application rate 320 g/ha) [%],pre-emergence activity against TRZAS in % (crop plant damage) [8] [%],further results
COC(=O)CCC(=O)N1CSc2cc(C)c(-c3ccccc3F)nc21 [Example I-010],100,90,100,90,80,90,0,–,–,–,–,–,–,pre-emergence activity against SETVI in % (Setaria viridis (SETVI) [2]; application rate 1280 g/ha): 100%; pre-emergence activity against AMARE in % ([3]; application rate 1280 g/ha): 100%
"CCS(=O)(=O)N1CSc2cc(C)c(-c3ccccc3F)nc21 [Example I-060, 3-(ethylsulfonyl)-5-(2-fluorophenyl)-6-methyl-2,3-dihydro[1,3]thiazolo[4,5-b]pyridine]",–,–,–,–,–,–,–,–,–,–,–,–,–,"pest or weed control at 1280 g/ha (Lolium rigidum (LOLRI); application rate 1280 g/ha): 100%; pest or weed control at 320 g/ha ([1]; Tripleurospermum inodorum, pre-emergence, 504 h, application rate 320 g/ha, read-out: pre-emergence activity against MATIN in %): 90%; pest or weed control at 320 g/ha (Poa annua (POAAN); application rate 320 g/ha): 100%; pest or weed control at 1280 g/ha (Setaria viridis (SETVI) [2]; Setaria viridis, 504 h, application rate 1280 g/ha, read-out: pre-emergence activity against SETVI in %): 100%; pest or weed control at 320 g/ha ([3]; application rate 320 g/ha): 90%; pest or weed control at 1280 g/ha ([4]; application rate 1280 g/ha): 90%; pest or weed control at 80 g/ha ([5]; Abutilon theophrasti, pre-emergence, 504 h, application rate 80 g/ha, read-out: pre-emergence activity against ABUTH in %): 90%; pest or weed control at 80 g/ha ([6]; Alopecurus myosuroides, pre-emergence, 504 h, application rate 80 g/ha, read-out: pre-emergence activity against ALOMY in %): 100%; pest or weed control at 80 g/ha (Setaria viridis (SETVI) [7]; Setaria viridis, pre-emergence, 504 h, application rate 80 g/ha, read-out: pre-emergence activity against SETVI in %): 100%"
Cc1cc2c(nc1-c1ccccc1F)N(C(=O)C1(C)CC(Cl)=NO1)CS2 (stereo not shown) [Example I-083],100,–,–,90,90,90,–,90,100,100,100,–,–,pre-emergence activity against POAAN in % (Poa annua (POAAN); application rate 1280 g/ha): 100%
Cc1cc2c(nc1-c1ccccc1)N(C(=O)C1(C)CC(Cl)=NO1)CS2 (stereo not shown) [Example I-088],100,–,100,90,90,–,0,90,100,90,100,90,0,–
Cc1cc2c(nc1-c1ccccc1F)N(C(=O)C13CCCC1C(Cl)=NO3)CS2 (stereo not shown) [Example I-104],100,100,100,90,80,–,–,–,100,90,100,100,0,–
COCC1(C(=O)N2CSc3cc(C)c(-c4ccccc4F)nc32)CC(Cl)=NO1 (stereo not shown) [Example I-128],100,100,100,90,–,90,–,–,100,90,100,–,–,pre-emergence activity against ABUTH in % ([5]; application rate 80 g/ha): 80%
Cc1ccccc1-c1nc2c(cc1C)SCN2C(=O)C1(C)CC(Cl)=NO1 (stereo not shown) [Example I-137],–,90,100,–,90,80,–,–,100,100,100,–,0,pre-emergence activity against LOLRI in % (Lolium rigidum (LOLRI); application rate 1280 g/ha): 100%; post-emergence activity against ABUTH in % ([4]; application rate 1280 g/ha): 90%
CC1(C(=O)N2CSc3cc(Br)c(-c4ccccc4)nc32)CC(Cl)=NO1 (stereo not shown) [Example I-139],–,–,100,–,90,–,20,90,100,100,–,80,–,pre-emergence activity against LOLRI in % (Lolium rigidum (LOLRI); application rate 1280 g/ha): 100%; post-emergence activity against ABUTH in % ([4]; application rate 1280 g/ha): 90%; pre-emergence activity against SETVI in % (Setaria viridis (SETVI) [7]; application rate 320 g/ha): 100%
"CC1(C(=O)N2CSc3cc(Br)c(-c4ccccc4Cl)nc32)CC(Cl)=NO1 (stereo not shown) [Example I-141, [6-bromo-5-(2-chlorophenyl)[1,3]thiazolo[4,5-b]pyridin-3(2H)-yl](3-chloro-5-methyl-4,5-dihydro-1,2-oxazol-5-yl)methanone]",–,–,–,–,–,–,–,–,–,–,–,–,0,"pest or weed control at 1280 g/ha (Lolium rigidum (LOLRI); application rate 1280 g/ha): 100%; pest or weed control at 1280 g/ha ([1]; Tripleurospermum inodorum, pre-emergence, 504 h, application rate 1280 g/ha, read-out: pre-emergence activity against MATIN in %): 90%; pest or weed control at 320 g/ha (Poa annua (POAAN); application rate 320 g/ha): 100%; pest or weed control at 320 g/ha (Setaria viridis (SETVI) [2]; Setaria viridis, 504 h, application rate 320 g/ha, read-out: pre-emergence activity against SETVI in %): 100%; pest or weed control at 320 g/ha ([3]; application rate 320 g/ha): 100%; pest or weed control at 1280 g/ha ([4]; application rate 1280 g/ha): 90%; pest or weed control at 320 g/ha ([5]; Abutilon theophrasti, pre-emergence, 504 h, application rate 320 g/ha, read-out: pre-emergence activity against ABUTH in %): 90%; pest or weed control at 320 g/ha ([6]; Alopecurus myosuroides, pre-emergence, 504 h, application rate 320 g/ha, read-out: pre-emergence activity against ALOMY in %): 80%; pest or weed control at 320 g/ha (Setaria viridis (SETVI) [7]; Setaria viridis, pre-emergence, 504 h, application rate 320 g/ha, read-out: pre-emergence activity against SETVI in %): 100%; percent crop plant damage at 80 g/ha (Glycine max (GLXMA); Glycine max, 504 h, read-out: post-emergence activity against GLXMA in %): 20%"
